Results taken from ChEMBL document CHEMBL6109087, “Design and synthesis of azole derivatives of echinocystic acid as α-glucosidase inhibitors with hypoglycemic activity” (Eur J Med Chem, 2025).
Activity calls are given as the source filed them. The rule behind the calls is not given here.

Columns and labels:
[1] = molecular target: T1, Alpha-glucosidase (Saccharomyces cerevisiae S288c) (UniProt P53341+P38158+P07265); test: Binding affinity to alpha-glucosidase assessed as fluorescent intensity (lambda-ex/lambda-em 276/332 nm) by 3D fluorescence spectra; format: protein assay
[2] = molecular target: T1, Alpha-glucosidase (Saccharomyces cerevisiae S288c); test: Binding affinity to alpha-glucosidase assessed as quenching by measuring decrease in fluorescent intensity at 0 to 8 uM; format: protein assay; conditions: dose 0-8 µM
Mus musculus [3] = test: Induction of high density lipoproteins (HDL) level in STZ-induced diabetic C57BL/6J mouse model treated via gavage by blood biochemistry index test; format: functional, organism-based
[4] = molecular target: T1, Alpha-glucosidase (Saccharomyces cerevisiae S288c); test: Binding affinity to alpha-glucosidase assessed as quenching by measuring decrease in fluorescent intensity by […] fluorescence spectroscopy; format: protein assay
[5] = Acute toxicity in C57BL/6J mouse assessed as change in serum ALB level at 0.5 g/Kg single dose; conditions: in vivo, 500 mg/kg
[6] = Acute toxicity in C57BL/6J mouse assessed as pathological damages in spleen at 0.5 g/Kg single dose by HE staining based analysis; format: tissue-based; conditions: in vivo, 500 mg/kg
Mus musculus [7] = test: Anti-oxidant effect in level in STZ-induced diabetic C57BL/6J mouse model assessed as […] in malondialdehyde (MDA) level in serum at 100 mg/kg treated via gavage; format: functional, organism-based
Mus musculus [8] = test: Reduction in total cholesterol (CHO) level in STZ-induced diabetic C57BL/6J mouse model treated via gavage by blood biochemistry index test; format: functional, organism-based
[9] = Acute toxicity in C57BL/6J mouse assessed as change in serum BUN level at 0.5 g/Kg single dose; conditions: in vivo, 500 mg/kg
[10] = Acute toxicity in C57BL/6J mouse assessed as pathological damages in kidney at 0.5 g/Kg single dose by HE staining based analysis; format: tissue-based; conditions: in vivo, 500 mg/kg
[11] = Acute toxicity in C57BL/6J mouse assessed as pathological damages in heart at 0.5 g/Kg single dose by HE staining based analysis; format: tissue-based; conditions: in vivo, 500 mg/kg
Mus musculus [12] = test: Anti-oxidant effect in level in STZ-induced diabetic C57BL/6J mouse model assessed as […] in glutathione (GSH) level in serum at 100 mg/kg treated via gavage; format: functional, organism-based
[13] = Acute toxicity in C57BL/6J mouse assessed as pathological damages in brain at 0.5 g/Kg single dose by HE staining based analysis; format: tissue-based; conditions: in vivo, 500 mg/kg
[14] = Acute toxicity in C57BL/6J mouse assessed as change in serum ALT level at 0.5 g/Kg single dose; conditions: in vivo, 500 mg/kg
[15] = Acute toxicity in C57BL/6J mouse assessed as pathological damages in lung at 0.5 g/Kg single dose by HE staining based analysis; format: tissue-based; conditions: in vivo, 500 mg/kg
Mus musculus [16] = test: Anti-oxidant effect in level in STZ-induced diabetic C57BL/6J mouse model assessed as […] in total superoxide dismutase (T-SOD) level in serum at 100 mg/kg treated via gavage; format: functional, organism-based
Mus musculus [17] = test: In vivo hypoglycemic effect in STZ-induced diabetic C57BL/6J mouse model assessed as decrease in postprandial blood glucose at 100 mg/kg treated via gavage measured up to 120 mins by Oral glucose tolerance test (OGTT); format: functional, organism-based
Mus musculus [18] = test: Reduction in low density lipoproteins (LDL) level in STZ-induced diabetic C57BL/6J mouse model treated via gavage by blood biochemistry index test; format: functional, organism-based
Mus musculus [19] = test: Anti-oxidant effect in level in STZ-induced diabetic C57BL/6J mouse model assessed as […] in catalase (CAT) level in serum at 100 mg/kg treated via gavage; format: functional, organism-based
[20] = test system: alpha-glucosidase (unknown origin); test: Selectivity index, ratio of CC50 for Cytotoxicity against human LO2 cells to IC50 for alpha-glucosidase (unknown origin); format: toxicity, cell-based, L02; conditions: read-out: Selectivity Index
Mus musculus [21] = test: Reduction in triglycerides (TG) level in STZ-induced diabetic C57BL/6J mouse model treated via gavage by blood biochemistry index test; format: functional, organism-based; conditions: dose 25-100 mg/kg
[22] = Acute toxicity in C57BL/6J mouse assessed as change in serum AST level at 0.5 g/Kg single dose; conditions: in vivo, 500 mg/kg
[23] = molecular target: T1, Alpha-glucosidase (Saccharomyces cerevisiae S288c); test: Mixed-type of inhibition at alpha-glucosidase assessed as decrease in Vmax by Lineweaver-Burk plot analysis; format: protein assay
Mus musculus [24] = test: In vivo hypoglycemic effect in STZ-induced diabetic C57BL/6J mouse model assessed as decrease in fasting blood glucose at 100 mg/kg treated via gavage measured after 7 days by fasting blood glucose test; format: functional, organism-based; conditions: time 7.0 day
[25] = molecular target: T1, Alpha-glucosidase (Saccharomyces cerevisiae S288c); test: Binding affinity to alpha-glucosidase assessed as fluorescent intensity (lambda-ex/lambda-em 285/320 nm) by 3D fluorescence spectra; format: protein assay
[26] = Toxicity in STZ-induced diabetic C57BL/6J mouse model assessed as body weight at 100 mg/kg treated via gavage measured after 7 days; format: organism-based; conditions: in vivo, po, 168 h, time 7 day
[27] = molecular target: T1, Alpha-glucosidase (Saccharomyces cerevisiae S288c); test: Mixed-type of inhibition at alpha-glucosidase assessed as decrease in Km by Lineweaver-Burk plot analysis; format: protein assay
[28] = Acute toxicity in C57BL/6J mouse assessed as signs of death or toxicity at 0.5 g/Kg single dose monitored over 14 days; conditions: in vivo, 500 mg/kg, 336 h, time 14 day
[29] = molecular target: T1, Alpha-glucosidase (Saccharomyces cerevisiae S288c); test: Inhibition of alpha-glucosidase using 4-Nitrophenyl-[…]-D-glucopyranoside (pNPG) as substrate assessed as inhibition rate at 30 uM relative control; format: protein assay
Alpha-glucosidase [30] = molecular target: T2, Alpha-glucosidase (Saccharomyces cerevisiae S288c, UniProt P53341+P38158+P07265); test: Binding affinity to alpha-glucosidase assessed as inhibition constant; format: protein assay
Mus musculus [31] = test: Reduction in blood glucose concentration in male C57BL/6J mouse assessed as peak blood glucose and glucose AUC preadministered for 30 mins via gavage followed by treated 2 g/Kg of sucrose and measured up to 120 mins post sucrose challenge by sucrose loading test; format: functional, organism-based; conditions: dose 100.0 mg/kg, time 150.0 min
[32] = Cytotoxicity against human LO2 cells assessed as cell viability measured after 24 hrs by MTT assay; format: toxicity, cell-based, L02
Alpha-glucosidase [33] = molecular target: T2, Alpha-glucosidase; test: Inhibition of alpha-glucosidase using 4-Nitrophenyl-[…]-D-glucopyranoside (pNPG) as substrate; format: protein assay
[34] = Acute toxicity in C57BL/6J mouse assessed as pathological damages in liver at 0.5 g/Kg single dose by HE staining based analysis; format: tissue-based; conditions: in vivo, 500 mg/kg
Alpha-glucosidase [35] = molecular target: T2, Alpha-glucosidase; test: Binding affinity to alpha-glucosidase assessed as inhibition constant for protein substrate (alpha-Glu-pNPG) complex; format: protein assay

CC1(C)CC[C@]2(C(=O)NCc3cn(-c4ccc(Cl)c(Cl)c4)nn3)[C@H](O)C[C@]3(C)C(=CC[C@@H]4[C@@]5(C)CC[C@H](O)C(C)(C)[C@@H]5CC[C@]43C)[C@@H]2C1
Activity [1]: Active | Activity [2]: Active | Activity (Mus musculus [3]): Dose-dependent-effect | Activity [4]: Active | Activity [5]: Non-toxic | Activity [6]: Non-toxic | Activity (Mus musculus [7]): Active | Activity (Mus musculus [8]): Dose-dependent-effect | Activity [9]: Non-toxic | Activity [10]: Non-toxic | Activity [11]: Non-toxic | Activity (Mus musculus [12]): Active | Activity [13]: Non-toxic | Activity [14]: Non-toxic | Activity [15]: Non-toxic | Activity (Mus musculus [16]): Active | Activity (Mus musculus [17]): Active; Evidenced By Compound Showed Lower Auc Compared With Model Group | Activity (Mus musculus [18]): Dose-dependent-effect | Activity (Mus musculus [19]): Active | selectivity ratio [20]: 105 | Activity (Mus musculus [21]): Dose-dependent-effect | Activity [22]: Non-toxic | inhibition [23]: Active | Activity (Mus musculus [24]): Active | Activity [25]: Active | Activity [26]: Non-toxic | inhibition [27]: Active | Activity [28]: Non-toxic | inhibition [29]: 88.1% | Ki (Alpha-glucosidase [30]): 15.31 µM | Activity (Mus musculus [31]): Dose-dependent-effect; Compound Showed Comparable Effect To Acarbose | CC50 at 24 h [32]: 287 µM | IC50 (Alpha-glucosidase [33]): 2.72 µM | Activity [34]: Non-toxic | Ki (Alpha-glucosidase [35]): 10.23 µM
